# In patent US9427456B2, “Peptide therapy for increasing platelet levels” (Biokine Therapeutics Ltd., priority 2009, dated 2016):
# Entries after “also recorded” stand apart in the source; their conditions may differ.
# B1: granulocyte-colony stimulating factor (protein, UniProt P09919 31-207, looked up)
# Granulocyte …: TPLGPASSLPQSFLLKCLEQVRKIQGDGAALQEKLVSECATYKLCHPEELVLLGHSLGIPWAPLSSCPSQALQLAGCLSQLHSGLFLYQGLLQALEGISPELGPTLDTLQLDVADFATTIWQQMEELGMAPALQPTQGAMPAFASAFQRRAGGVLVASHLQSFLEVSYRVLRHLAQP
# notes: granulocyte-colony stimulating factor, s.c. injected daily at 5 μg/mouse
# How the values were obtained:
# blood platelets [1] = test: Chemotherapy (5FU)-induced thrombocytopenia model in mice; type: in vivo; details: for Levels of platelets in blood before and after 5FU: 5FU 150 mg/kg i.p. day 0, peptide 5 mg/Kg s.c. daily 5 days before and from day 1 after 5FU, G-CSF 5 μg/mouse daily from day 1, TPO 0.5 μg/mouse 3 days before 5FU, FIG. 4-6
# Description: In the chemotherapy experiments 5-fluorouracil (5FU) at 150 mg/kg was dissolved in saline and injected intraperitoneally (on day 0). The mice were treated with 4F-benzoyl-TN14003 (5 mg/Kg) for 5 days or with TPO (0.5 μg/mouse) for 3 days before treatment with 5FU. 4F-benzoyl-TN14003 treated mice were further treated daily with 4F-benzoyl-TN14003 (5 mg/Kg) one day after 5FU administration and the treatment was continued until the end of the experiment. Blood samples were collected 1 hr following 4F-benzoyl-TN14003 administration or control (PBS) injection]; total blood counts were tested by American Medical Laboratories, Israel. In some experiments, G-CSF was s.c. injected daily, one day after 5FU administration until the end of the experiment, at final concentration of 5 μg/mouse in total volume of 0.2 ml.
# The platelet modulating effects were then examined in a chemotherapy-induced thrombocytopenia model in mice. In these experiments, 5-fluorouracil (“5FU”) at 150 mg/kg dissolved in saline was injected intraperitoneally to all mice (on day 0). Some of the mice were further treated with 4F-benzoyl-TN14003 (5 mg/Kg, once daily S.C. injections) for 5 days before treatment with 5FU, and Mice were further treated daily with 4F-benzoyl-TN14003 (5 mg/Kg) one day after 5FU and the treatment was continued until the end of the experiment. Blood samples were collected 1 hr following administration of 4F-benzoyl-TN14003 or control (PBS) injection. […] In FIG. 4, diamonds represent control (PBS treated) mice; open squares represent 4F-benzoyl-TN14003 treated mice.
# Next, the effect of the peptide on mice treated with 5FU with or without G-CSF was examined. G-CSF administration (as daily S.C. injections, 5 μg/mouse) was initiated one day after 5FU treatment and continued until the end of the experiment. 5FU and 4F-benzoyl-TN14003 administration and blood sample collection were as specified above for FIG. 4. […] In FIG. 5, diamonds represent control (PBS treated) mice; open squares represent 4F-benzoyl-TN14003 treated mice; triangles represent G-CSF treated mice; and crosses represent mice treated with G-CSF and 4F-benzoyl-TN14003.
# The activity of the peptide in the chemotherapy-induced thrombocytopenia model was then compared to that of TPO. In the TPO group, mice were treated with a single dose of TPO (0.5 μg/mouse) for 3 days before treatment with 5FU. 5FU and 4F-benzoyl-TN14003 administration and blood sample collection were as specified above for FIG. 4. […] In FIG. 6, diamonds represent control (PBS treated) mice; open squares represent 4F-benzoyl-TN14003 treated mice; and triangles represent TPO treated mice.
# blood platelets [2] = test: Clinical study: single dose in Multiple Myeloma patients receiving Cyclophosphamide and G-CSF, blood platelet levels; type: in vivo, human
# Description: A Phase […], non-Randomized, Open Label, Single Dose, Dose-Escalation, Safety Study of 4F-benzoyl-TN14003 was conducted in patients with Multiple Myeloma (MM) receiving G-CSF for inducing mobilization of progenitor stem cells from the Bone Marrow to the peripheral blood.
# All eligible patients received, in an ambulatory setting, as part of their planned therapy: Cyclophosphamide—(the generic name for Cytoxan, Neosar), 4 gr/m^2 according to the accepted MM practice. G-CSF (neupogen) was initiated 5 days later and continued until the end of stem cell collection, administered SC at 5 μg/kg per day every day after 18:00. Monitoring the WBC and platelets was done after 7 and 10 days, and until stem cell collection. Stem cell collection was performed according to the protocol of WBC over 1,000 cells.
# 4F-benzoyl-TN14003 was injected after 10 days, as a single dose of 30, 100, 300 or 900 μg/Kg. The follow-up post injection included counting WBC and platelets levels at points of 30 min, 1 hr, 2 hr, 4 hr, 8 hr, 24 hr.
# MM patients undergoing chemotherapy with Cyclophosphamide, received G-CSF according to a clinical protocol for inducing HPC mobilization for subsequent harvesting and transplantation. 10 days after Cyclophosphamide and G-CSF treatment, the patients received 4F-benzoyl-TN14003 injected at a dose of 0.9 mg/kg. […]
# blood platelets [3] = test: Blood platelet counts in healthy mice after s.c. injection; type: in vivo, C57BL/6 mice; details: for Platelets (×10^3): blood at day 5, s.c., 4F-benzoyl-TN14003 100 ug/mouse (5 mg/Kg) once a day for 5 days, TPO 0.5 ug/mouse 3 times once a day (days 3-5 in combination); for % increase (platelet counts): versus PBS control, day 5, same regimens as platelet counts
# Description: Female C57BL/6 mice (7-8 weeks old) were purchased from Harlan Israel and maintained under specific pathogen-free conditions at the Hebrew University Animal Facility (Jerusalem, Israel).
# (§1) 4F-benzoyl-TN14003 and Thrombopoietin were reconstituted in PBS at various concentrations. Mice were injected subcutaneously in a total volume of 200 μl. 4F-benzoyl-TN14003 (100 ug/mouse, 5 mg/Kg) was injected for 5 days, once a day and at day 5 blood was collected and tested for platelets counts and hematopoietic colonies were tested in the bone marrow. Thrombopoietin was injected 3 times once a day, at (0.5 ug/mouse), and blood was collected and tested for platelets counts and hematopoietic colonies were tested in the bone marrow at day 5. In another group 4F-benzoyl-TN14003 (100 ug/mouse) was injected for 5 days, once a day and at days 3, 4 and 5 mice were further injected with Thrombopoietin (namely 3 times once a day, at 0.5 ug/mouse). Blood was collected and tested for platelets counts and hematopoietic colonies were tested in the bone marrow at day 5. Control mice were injected with PBS at the appropriate volume and blood was collected and tested for platelets counts and hematopoietic colonies in the bone marrow at day 5.
# In the experiments described in FIG. 2, mice were injected subcutaneously with 4F-benzoyl-TN14003 at a dose of 5 mg/kg, administered either as a once daily injection or divided into two doses administered b.i.d. Blood platelet levels were measured 1, 2 or 3 days later.
# In FIG. 3, “Male control” and “Female control” indicate PBS-treated male and female mice, respectively; “Male+4FB-T140” and “Female+4FB-T140” indicate male or female mice treated with 4F-benzoyl-TN14003 (5 mg/kg)
# [4] = system: hematopoietic precursor cells in the bone marrow; test: Hematopoietic progenitor cells (HPCs) colony-forming cell assay, bone marrow of treated mice; type: in vivo, C57BL/6 mice; details: bone marrow at day 5; colonies scored after seven days of culture; same regimens as Table 2
# Description: as §1
# In order to evaluate the number of progenitor cells in the Bone marrow, a colony-forming cell assay was used for the production of hematopoietic colonies following treatments. […] Seven days later, typical colonies were visually scored by morphologic criteria using a light microscope.
molecule,measurement,setting,value
4F-benzoyl-Arg-Arg-Nal-Cys-Tyr-Cit-Lys-DLys-Pro-Tyr-Arg-Cit-Cys-Arg-NH2 [4F-benzoyl-TN14003],Levels of platelets in blood before and after 5FU,blood platelets [1],enhanced the levels of platelets in blood before and after treatment with 5FU; also recorded: elevated blood platelet levels before or after 5FU administration
same,"Platelet levels after 10 days of administration, compared with TPO and control","blood platelets [1]; 5FU model, FIG. 6",higher in 4F-benzoyl-TN14003-treated mice than in TPO-treated mice or control mice
same,Potency relative to TPO in enhancing platelet levels and reducing chemotherapy-induced thrombocytopenia,blood platelets [1]; thrombocytopenia induced by chemotherapy,more potent than TPO
same,Time after administration at which platelet increase could be detected,"blood platelets [2]; 0.9 mg/kg single injection, MM patients",30 min
same,Number of platelets in the blood after single injection,"blood platelets [2]; 0.9 mg/kg, 10 days after Cyclophosphamide and G-CSF, still observed after 1, 2, 4 or 8 hours, FIG. 7",immediate increase in the number of platelets in the blood
same,Blood platelet levels after a single injection,"blood platelets [3]; 5 mg/kg s.c., once daily or divided b.i.d., measured 1, 2 or 3 days later, FIG. 2",significant elevation in blood platelet levels
same,Blood platelet levels in male and female mice,"blood platelets [3]; 5 mg/kg, measured 3 days post administration, FIG. 3",enhanced blood platelet levels
same,Platelets (×10^3),blood platelets [3],1551 ×10^3
same,Effect on TPO activity in enhancing platelets levels,"blood platelets [3]; combination with TPO, mice, FIG. 1",potentiates the activity of TPO in enhancing platelets levels in vivo
same,Potency relative to TPO in stimulating production of platelets,blood platelets [3]; healthy C57B1 mice,as potent as TPO
same,% increase (platelet counts),blood platelets [3],32%
same,"Colonies (HPC counts, colony forming cells in bone marrow)",[4],148.2
Thrombopoietin [TPO],Levels of platelets in blood before and after 5FU,blood platelets [1],elevated blood platelet levels before or after 5FU administration
same,Platelets (×10^3),blood platelets [3],1556 ×10^3
same,% increase (platelet counts),blood platelets [3],32%
same,"Colonies (HPC counts, colony forming cells in bone marrow)",[4],150.2
B1,Levels of platelets in blood before and after 5FU,blood platelets [1],no effect on blood platelet levels; also recorded: had no effect on platelet levels
